Results: patent US20240270762A1, “PENICILLIN-BINDING PROTEIN INHIBITORS” (priority 2021, published 2024)
Values after ≈ are worked out from the molar mass of the structure shown.

Experiments:
P. aeruginosa CDC-0090 = experiment: microbe, parasite or virus in culture; assay type: cell-based; details: Pseudomonas aeruginosa, CDC0090, read-out: Minimum inhibitory concentration, P. aeruginosa CDC-0090
A. baumannii ATCC 19606 = experiment: microbe, parasite or virus in culture; assay type: cell-based; details: Acinetobacter baumannii, ATCC19606, read-out: MIC, A. baumannii ATCC 19606
[1] = target: T1, PBP3 from Escherichia coli (K-12) (Escherichia coli, UniProt P0AD68); experiment: Bocillin-FL fluorescence polarization competition binding, E. coli PBP3
T1 construct: made in house
Outline: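 Purified PBP was preincubated with inhibitor (E. coli PBP3 1.5 μM, 30 min; P. aeruginosa PBP3 0.75 μM, A. baumannii PBP3 0.2 μM and PBP1a 1 μM, 15 min), then Bocillin-FL (0.1 μM; 0.05 μM for PBP1a) added and FP read up to 60 min. EC50 = 50% loss of bound probe.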

P. aeruginosa CDC-0054 = experiment: microbe, parasite or virus in culture; assay type: cell-based; details: Pseudomonas aeruginosa, CDC0054, read-out: Minimum inhibitory concentration, P. aeruginosa CDC-0054
[2] = tested on: B. thailandensis ATCC 700388; experiment: microbe, parasite or virus in culture; assay type: cell-based; details: Burkholderia thailandensis, ATCC700388, read-out: Minimum inhibitory concentration (MIC), B. thailandensis ATCC 700388
P. aeruginosa CDC-0095 = experiment: microbe, parasite or virus in culture; assay type: cell-based; details: Pseudomonas aeruginosa, CDC0095, read-out: Minimum inhibitory concentration, P. aeruginosa CDC-0095
A. baumannii CDC-0045 = experiment: microbe, parasite or virus in culture; assay type: cell-based; details: Acinetobacter baumannii, CDC0045, read-out: MIC, A. baumannii CDC-0045
A. baumannii CDC-0033 = experiment: microbe, parasite or virus in culture; assay type: cell-based; details: Acinetobacter baumannii, CDC0033, read-out: MIC, A. baumannii CDC-0033
[3] = tested on: B. humptydooensis ATCC BAA-2767; experiment: microbe, parasite or virus in culture; assay type: cell-based; details: Burkholderia humptydooensis, ATCCBAA2767, read-out: Minimum inhibitory concentration (MIC), B. humptydooensis ATCC BAA-2767
P. aeruginosa ATCC 35151 = experiment: microbe, parasite or virus in culture; assay type: cell-based; details: Pseudomonas aeruginosa, ATCC35151, read-out: Minimum inhibitory concentration, P. aeruginosa ATCC 35151
P. aeruginosa ATCC 27853 = experiment: microbe, parasite or virus in culture; assay type: cell-based; details: Pseudomonas aeruginosa, ATCC27853, read-out: Minimum inhibitory concentration, P. aeruginosa ATCC 27853
A. baumannii CDC-0083 = experiment: microbe, parasite or virus in culture; assay type: cell-based; details: Acinetobacter baumannii, CDC0083, read-out: MIC, A. baumannii CDC-0083

T1 sequence (P0AD68 1-577): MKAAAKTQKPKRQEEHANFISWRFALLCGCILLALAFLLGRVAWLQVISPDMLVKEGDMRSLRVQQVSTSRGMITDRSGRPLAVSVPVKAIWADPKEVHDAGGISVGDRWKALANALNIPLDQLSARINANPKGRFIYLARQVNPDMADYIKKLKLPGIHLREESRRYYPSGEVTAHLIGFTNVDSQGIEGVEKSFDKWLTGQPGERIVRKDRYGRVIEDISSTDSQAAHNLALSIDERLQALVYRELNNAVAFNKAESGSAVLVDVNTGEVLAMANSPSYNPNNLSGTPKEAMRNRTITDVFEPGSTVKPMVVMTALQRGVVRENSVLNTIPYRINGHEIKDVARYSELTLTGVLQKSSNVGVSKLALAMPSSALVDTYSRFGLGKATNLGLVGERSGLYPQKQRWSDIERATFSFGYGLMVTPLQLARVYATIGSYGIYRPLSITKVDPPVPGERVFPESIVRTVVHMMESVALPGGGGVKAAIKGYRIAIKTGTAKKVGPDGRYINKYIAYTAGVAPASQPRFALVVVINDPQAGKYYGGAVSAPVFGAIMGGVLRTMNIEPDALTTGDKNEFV

Structure (SMILES)	MIC (P. aeruginosa CDC-0090) [µg/mL]	MIC (A. baumannii ATCC 19606) [µg/mL]	EC50 [1] [µM]	MIC (P. aeruginosa CDC-0054) [µg/mL]	MIC [2] [µg/mL]	MIC (P. aeruginosa CDC-0095) [µg/mL]	MIC (A. baumannii CDC-0045) [µg/mL]	MIC (A. baumannii CDC-0033) [µg/mL]	MIC [3] [µg/mL]	MIC (P. aeruginosa ATCC 35151) [µg/mL]	MIC (P. aeruginosa ATCC 27853) [µg/mL]	MIC (A. baumannii CDC-0083) [µg/mL]
O=C(NCCCN1CCN(C(=O)NC(C(=O)N[C@H]2Cc3ccc(F)c(C(=O)O)c3OB2O)c2cc(F)c(O)c(O)c2Cl)C(=O)C1=O)c1cc(F)ncc1F (mixture of isomers) [Example 405]	2 to 4	< 1	< 10	2 to 4	< 1	2 to 4	< 1	2 to 4	2 to 4	< 1	2 to 4	< 1
CS(=O)(=O)N1CCN(C(=O)N[C@H](C(=O)N[C@H]2Cc3cccc(C(=O)O)c3OB2O)c2ccc(P(=O)(O)O)cc2)C1=O (single isomer, unassigned) [Example 5]			50 to 250									
O=C(O)c1c(F)ccc2c1OB(O)[C@@H](NC(=O)[C@@H](NC(=O)N1CCN(C3CCN(C(=O)Nc4ccc(O)cc4)CC3)C1=O)c1cc(F)c(O)c(O)c1Cl)C2 (single isomer, unassigned) [Example 467]	< 1	< 1		2 to 4 (≈ 2.59 to 5.18 µM)	< 1	< 1	< 1	< 1	2 to 4 (≈ 2.59 to 5.18 µM)	< 1	< 1	
O=C(O)c1c(F)ccc2c1OB(O)[C@@H](NC(=O)[C@H](NC(=O)N1CCN(C3CCN(C(=O)Nc4ccc(O)cc4)CC3)C1=O)c1cc(F)c(O)c(O)c1Cl)C2 (single isomer, unassigned) [Example 468]	< 1	< 1		< 1	< 1	< 1	< 1	< 1	< 1	< 1	< 1	
CCN1CCN(C(=O)NC(C(=O)N[C@H]2Cc3cccc(C(=O)O)c3OB2O)c2ccc(P(=O)(O)O)cc2F)C(=O)C1=O (stereo partly drawn) [Example 1, (3R)-3-(2-(4-ethyl-2,3-dioxopiperazine-1-carboxamido)-2-(2-fluoro-4-phosphonophenyl)acetamido)-2-hydroxy-3,4-dihydro-2H-benzo[e][1,2]oxaborinine-8-carboxylic acid]			< 10									
CCN1CCN(C(=O)NC(C(=O)N[C@H]2Cc3cccc(C(=O)O)c3OB2O)c2cc(P(=O)(O)O)ccc2F)C(=O)C1=O (stereo partly drawn) [Example 2, (3R)-3-(2-(4-ethyl-2,3-dioxopiperazine-1-carboxamido)-2-(2-fluoro-5-phosphonophenyl)acetamido)-2-hydroxy-3,4-dihydro-2H-benzo[e][1,2]oxaborinine-8-carboxylic acid]			< 10									
NCCN1CCN(C(=O)NC(C(=O)N[C@H]2Cc3cccc(C(=O)O)c3OB2O)c2ccc(P(=O)(O)O)cc2)C(=O)C1=O (stereo partly drawn) [Example 3, (3R)-3-(2-(4-(2-aminoethyl)-2,3-dioxopiperazine-1-carboxamido)-2-(4-phosphonophenyl)acetamido)-2-hydroxy-3,4-dihydro-2H-benzo[e][1,2]oxaborinine-8-carboxylic acid]			10 to 50									
O=C(O)c1cccc2c1OB(O)[C@@H](NC(=O)C(NC(=O)N1CCN(CC(F)(F)F)C(=O)C1=O)c1ccc(P(=O)(O)O)cc1)C2 (stereo partly drawn) [Example 4, (3R)-3-(2-(2,3-dioxo-4-(2,2,2-trifluoroethyl)piperazine-1-carboxamido)-2-(4-phosphonophenyl)acetamido)-2-hydroxy-3,4-dihydro-2H-benzo[e][1,2]oxaborinine-8-carboxylic acid]			< 10									
O=C(O)c1c(F)ccc2c1OB(O)[C@@H](NC(=O)C(NC(=O)N1CCN(C3CCN(C(=O)c4ccc(O)cc4)CC3)C(=O)C1=O)c1cc(F)c(O)c(O)c1Cl)C2 (stereo partly drawn) [Example 427, (3R)-3-(2-(2-chloro-5-fluoro-3,4-dihydroxyphenyl)-2-(4-(1-(4-hydroxybenzoyl)piperidin-4-yl)-2,3-dioxopiperazine-1-carboxamido)acetamido)-7-fluoro-2-hydroxy-3,4-dihydro-2H-benzo[e][1,2]oxaborinine-8-carboxylic acid]	2 to 4 (≈ 2.54 to 5.09 µM)	< 1	< 10	2 to 4 (≈ 2.54 to 5.09 µM)	< 1	2 to 4 (≈ 2.54 to 5.09 µM)	< 1	2 to 4 (≈ 2.54 to 5.09 µM)	< 1	< 1	< 1	
O=C(O)c1c(F)ccc2c1OB(O)[C@@H](NC(=O)C(NC(=O)N1CCN(C3CCN(C(=O)Cc4cccc(O)c4)CC3)C(=O)C1=O)c1cc(F)c(O)c(O)c1Cl)C2 (stereo partly drawn) [Example 474, (3R)-3-(2-(2-chloro-5-fluoro-3,4-dihydroxyphenyl)-2-(4-(1-(2-(3-hydroxyphenyl)acetyl)piperidin-4-yl)-2,3-dioxopiperazine-1-carboxamido)acetamido)-7-fluoro-2-hydroxy-3,4-dihydro-2H-benzo[e][1,2]oxaborinine-8-carboxylic acid]	< 1	< 1		< 1	2 to 4 (≈ 2.5 to 5 µM)	2 to 4 (≈ 2.5 to 5 µM)	< 1	< 1	< 1	< 1	2 to 4 (≈ 2.5 to 5 µM)	
O=C(O)c1c(F)ccc2c1OB(O)[C@@H](NC(=O)C(NC(=O)N1CCN(CC3CCN(C(=O)c4cccc(O)c4)CC3)C(=O)C1=O)c1cc(F)c(O)c(O)c1Cl)C2 (stereo partly drawn) [Example 475, (3R)-3-(2-(2-chloro-5-fluoro-3,4-dihydroxyphenyl)-2-(4-((1-(3-hydroxybenzoyl)piperidin-4-yl)methyl)-2,3-dioxopiperazine-1-carboxamido)acetamido)-7-fluoro-2-hydroxy-3,4-dihydro-2H-benzo[e][1,2]oxaborinine-8-carboxylic acid]	< 1	< 1		< 1	< 1	< 1	< 1	2 to 4 (≈ 2.5 to 5 µM)	2 to 4 (≈ 2.5 to 5 µM)	< 1	2 to 4 (≈ 2.5 to 5 µM)	
O=C(O)c1c(F)ccc2c1OB(O)[C@@H](NC(=O)C(NC(=O)N1CCN(C3CCN(C(=O)c4ccc(O)cc4O)CC3)C(=O)C1=O)c1cc(F)c(O)c(O)c1Cl)C2 (stereo partly drawn) [Example 476, (3R)-3-(2-(2-chloro-5-fluoro-3,4-dihydroxyphenyl)-2-(4-(1-(2,4-dihydroxybenzoyl)piperidin-4-yl)-2,3-dioxopiperazine-1-carboxamido)acetamido)-7-fluoro-2-hydroxy-3,4-dihydro-2H-benzo[e][1,2]oxaborinine-8-carboxylic acid]	< 1	< 1		< 1	< 1	< 1	< 1	< 1	< 1	< 1	< 1	
O=C(O)c1c(F)ccc2c1OB(O)[C@@H](NC(=O)C(NC(=O)N1CCN(CC3CCN(C(=O)Nc4cccc(O)c4)CC3)C(=O)C1=O)c1cc(F)c(O)c(O)c1Cl)C2 (stereo partly drawn) [Example 477, (3R)-3-(2-(2-chloro-5-fluoro-3,4-dihydroxyphenyl)-2-(4-((1-((3-hydroxyphenyl)carbamoyl)piperidin-4-yl)methyl)-2,3-dioxopiperazine-1-carboxamido)acetamido)-7-fluoro-2-hydroxy-3,4-dihydro-2H-benzo[e][1,2]oxaborinine-8-carboxylic acid]	< 1	< 1		< 1	< 1	< 1	< 1	2 to 4 (≈ 2.45 to 4.91 µM)	< 1	< 1	< 1	
O=C(O)c1c(F)ccc2c1OB(O)[C@@H](NC(=O)C(NC(=O)N1CCN(C3CCN(C(=O)Nc4cccc(O)c4F)CC3)C(=O)C1=O)c1cc(F)c(O)c(O)c1Cl)C2 (stereo partly drawn) [Example 478, (3R)-3-(2-(2-chloro-5-fluoro-3,4-dihydroxyphenyl)-2-(4-(1-((2-fluoro-3-hydroxyphenyl)carbamoyl)piperidin-4-yl)-2,3-dioxopiperazine-1-carboxamido)acetamido)-7-fluoro-2-hydroxy-3,4-dihydro-2H-benzo[e][1,2]oxaborinine-8-carboxylic acid]	2 to 4 (≈ 2.44 to 4.88 µM)	< 1		2 to 4 (≈ 2.44 to 4.88 µM)	2 to 4 (≈ 2.44 to 4.88 µM)	2 to 4 (≈ 2.44 to 4.88 µM)	< 1	8 to 16 (≈ 9.77 to 19.5 µM)	8 to 16 (≈ 9.77 to 19.5 µM)	< 1	2 to 4 (≈ 2.44 to 4.88 µM)	
